Like-named read-outs stand apart in the source and are kept apart here.
How the values were obtained:
[1] = Stability of α-MG in various buffer solutions; assay type: physicochemical; conditions: pHs ranging from 2 to 13; unpublished data
[2] = Metabolism of α-MG in in vitro S9 fraction of liver; assay type: in vitro ADME, mice; conditions: 30 min incubation, NADPH and UDPGA
Excerpt: (§1) The procedures for using S9 fractions from various tissues were similar those already reported. Each liver, stomach, small intestine, large intestine, lung, heart, kidney, fat, mesentery, muscle, and brain was excised after cervical dislocation (n = 6). Each tissue sample was rinsed with cold 0.9% NaCl-injectable solution, blotted dry with tissue paper and weighed. Then each tissue was homogenized with a volume of 0.25 M sucrose at 4 times of each tissue. Metabolic activity was initiated by adding a 100 μL aliquot of the 9000 × g supernatant fraction (S9) of each tissue to a 135 μL of Tris-buffer (pH 7.4), 5 μL of 0.9% NaCl-injectable solution with 1 or 20 μg/mL α-MG as a final concentration, 5 μL (1 mM) of NADPH and 5 μL (3.3 mM) of UDPGA. A 250 μL aliquot of acetonitrile (containing 1 μg/mL of the IS) was added after a 30 min incubation in a thermomixer (37°C and 500 opm) to terminate the enzyme activity. The amount of remaining α-MG in the S9 fraction of each tissue was determined using the HPLC-MS/MS analytical method.

[3] = Mouse plasma protein binding using an equilibrium dialysis technique; assay type: in vitro ADME; conditions: pH 7.4, fresh mouse plasma
Experimental: A 250 μL of mouse plasma was dialyzed against 250 μL of isotonic Sørensen phosphate buffer with pH 7.4 containing 3% (w/v) dextran (‘the buffer’) in a dialysis cell using a Spectra/Por 4 membrane (molecular weight cutoff of 12000–14000; Spectrum Medical Industries). α-MG was spiked into the plasma compartment to produce an initial concentration of 1 or 20 μg/mL and all other procedures followed the reported method.

[4] = Pharmacokinetics of α-MG after intravenous administration to mice (automated microsampling); assay type: in vivo; conditions: for CL renal / MRT / clearance / AUC / half-life / Vd: mouse, plasma; for half-life: read-out: Terminal half-life; for Vd: read-out: V ss
Experimental: The surgical procedures were conducted under intramuscular injection anesthesia with 125 mg (1.5 mL)/kg of tiletamine HCl and zolazepam HCl mixture. The carotid artery (for intravenous and oral studies) and the jugular vein (for intravenous study) were cannulated using CX-2052S and CX-2022S catheters (BASi, West Lafayette, IN), respectively. After the mice awoke from anesthesia, the administration of α-MG and blood sampling were performed, [12], [31].
In intravenous study, α-MG (dissolved in PEG 400: distilled water = 6:4, v/v) at doses of 5, 10 and 20 mg (5 mL)/kg was administered through the jugular vein. The micro-sampling system (Culex BASi, West Lafayette, IN) was programmed to collect a 10 μL sample of blood into a micro-vial containing 50 μL of 12.5 units/mL heparinized saline. Blood loss due to blood sampling was replaced with equal volumes of heparinized saline. Blood samples were collected at 0, 1, 5, 15, 30, 60, 90, 120, 180, 240, 300 and 360 min after intravenous administration of the α-MG with virtually no blood loss. After centrifugation of each micro-vial, 50 μL of supernatant was collected. At the end of 24 h, each metabolic cage was rinsed with 5 mL of distilled water and the resulting fluid combined with the urine collected over the previous 24 h. At this time, each mouse was sacrificed by cervical dislocation, and then the entire gastrointestinal tract (including its contents and feces) was removed, transferred into a beaker that contained 10 mL of methanol (to facilitate the extraction of α-MG) and the gastrointestinal tract was cut into small pieces. After manual shaking and stirring, a 50 μL aliquot of the supernatant was collected from each beaker and stored.
The analytical method for measuring α-MG was modified from a previous report. In sample preparation, 100 μL of acetonitrile containing 1 μg/mL IS was added to 50 μL of aliquot of the sample. After vortex-mixing and centrifugation (15000 × g for 10 min), 10 μL of the supernatant was directly injected into a reversed-phase C18 column (Cadenza CD-C18, 2 mm × 75 mm i.d., 3-μm particle size; Imtakt, USA) kept at 4°C until injection. The analytes were monitored using a API4000 triple quadrupole mass spectrometer (AB Sciex, Foster City, CA) equipped with a turbo ion-spray interface for electrospray ionization and operated in positive ion mode at 5500 V and 500°C at 50 L/min of nebulizing gas flow, 50 L/min of turbo ion-spray gas flow, 20 L/min of curtain gas flow, 5500 V of ring voltage and 5 Torr of collision gas (nitrogen) pressure.
Standard methods were used to calculate the following pharmacokinetic parameters using a non-compartmental analysis (WinNonlin 2.1; Pharmasight Corp., Mountain View, CA). The extent of absolute oral bioavailability (F) was calculated by dividing the AUCoral/AUCiv at the same dose. The peak plasma concentration (C max) and time to reach C max (T max) were read directly from the […] data.

[5] = Metabolism of α-MG in in vitro S9 fraction of small intestine; assay type: in vitro ADME, mice; conditions: 30 min incubation, NADPH and UDPGA
Excerpt: as §1

[6] = intravenous, doses of 5, 10 and 20 mg/kg

Q: Which “stability in various buffer solutions” value [1] does the source give for COc1c(O)cc2oc3cc(O)c(CC=C(C)C)c(O)c3c(=O)c2c1CC=C(C)C [α-MG, α-Mangostin] here?
A: Its value is “stable”.

Q: What about the “disappearance of spiked α-MG” value ([2]; liver S9, 1 μg/mL) of the same molecule?
A: Its value is 57.3%.

Q: What about the “disappearance of spiked α-MG” value ([2]; liver S9, 20 μg/mL) of the same molecule?
A: Its value is 51.4%.

Q: And the fraction unbound at 1 μg/mL ([3]; 1 μg/mL)?
A: Its fraction unbound at 1 μg/mL is 0.082.

Q: And the fraction unbound at 20 μg/mL ([3]; 20 μg/mL)?
A: Its fraction unbound at 20 μg/mL is 0.107.

Q: And the “CLR, fu (CLR based on free fraction in plasma)” value ([4]; estimated from CLR and unbound fraction)?
A: Its value is 1.72 to 3.44 mL/min/kg.

Q: What about the “Ae 0–24 h (excreted in the urine as unchanged α-MG)” value ([4]; intravenous, 5 mg/kg) of the same molecule?
A: The value was 0.839 ± 0.525 % of dose.

Q: What about the CLNR ([4]; intravenous, 5 mg/kg) of the same molecule?
A: The CLNR was 31.1 ± 7.14 mL/min/kg.

Q: What about the “GI 24 h (remaining in the gastrointestinal tract at 24 h as unchanged α-MG)” value ([4]; intravenous, 5 mg/kg) of the same molecule?
A: The value was 3.44 ± 1.16 % of dose.

Q: What about the “Ae 0–24 h (excreted in the urine as unchanged α-MG)” value ([4]; intravenous, 10 mg/kg) of the same molecule?
A: Its value is 0.592 ± 0.394 % of dose.

Q: And the CLNR ([4]; intravenous, 10 mg/kg)?
A: The CLNR was 31.1 ± 7.83 mL/min/kg.

Q: And the “GI 24 h (remaining in the gastrointestinal tract at 24 h as unchanged α-MG)” value ([4]; intravenous, 10 mg/kg)?
A: The value was 2.28 ± 1.96 % of dose.

Q: And the “Ae 0–24 h (excreted in the urine as unchanged α-MG)” value ([4]; intravenous, 20 mg/kg)?
A: Its value is 0.403 ± 0.163 % of dose.

Q: What about the CLNR ([4]; intravenous, 20 mg/kg) of the same molecule?
A: The CLNR was 34.6 ± 12.3 mL/min/kg.

Q: What about the “GI 24 h (remaining in the gastrointestinal tract at 24 h as unchanged α-MG)” value ([4]; intravenous, 20 mg/kg) of the same molecule?
A: Its value is 3.42 ± 1.73 % of dose.

Q: What about the “Ae 0–24 h” value [4, 6] of the same molecule?
A: Its value is “less than 0.839 % of the intravenous dose”.

Q: And the “GI 24 h” value [4, 6]?
A: The value was “less than 3.44 % of the doses”.

Q: What about the CL renal ([4]; intravenous, 5 mg/kg) of the same molecule?
A: Its CL renal is 0.283 ± 0.194 mL/min/kg.

Q: What about the MRT ([4]; intravenous, 5 mg/kg) of the same molecule?
A: The MRT was 2.42 h.

Q: What about the clearance ([4]; intravenous, 5 mg/kg) of the same molecule?
A: Its clearance is 31.4 ± 7.28 mL/min/kg.

Q: What about the AUC ([4]; intravenous, 5 mg/kg (n = 9)) of the same molecule?
A: The AUC was 2820 ng·h/mL.

Q: What about the half-life ([4]; intravenous, 5 mg/kg) of the same molecule?
A: The half-life was 3.77 ± 0.572 h.

Q: And the Vd ([4]; intravenous, 5 mg/kg)?
A: The Vd was 4.3 ± 1.01 L/kg.

Q: And the CL renal ([4]; intravenous, 10 mg/kg)?
A: Its CL renal is 0.205 ± 0.15 mL/min/kg.

Q: What about the MRT ([4]; intravenous, 10 mg/kg) of the same molecule?
A: The MRT was 2.67 h.

Q: And the clearance ([4]; intravenous, 10 mg/kg)?
A: Its clearance is 31.3 ± 7.95 mL/min/kg.

Q: And the AUC ([4]; intravenous, 10 mg/kg (n = 8))?
A: The AUC was 5670 ng·h/mL.

Q: And the half-life ([4]; intravenous, 10 mg/kg)?
A: Its half-life is 3.65 ± 1.23 h.

Q: And the Vd ([4]; intravenous, 10 mg/kg)?
A: The Vd was 4.27 ± 1.97 L/kg.

Q: What about the CL renal ([4]; intravenous, 20 mg/kg) of the same molecule?
A: Its CL renal is 0.141 ± 0.0801 mL/min/kg.

Q: And the MRT ([4]; intravenous, 20 mg/kg)?
A: The MRT was 2.4 h.

Q: What about the clearance ([4]; intravenous, 20 mg/kg) of the same molecule?
A: The clearance was 34.7 ± 12.4 mL/min/kg.

Q: And the AUC ([4]; intravenous, 20 mg/kg (n = 8))?
A: Its AUC is 10600 ng·h/mL.

Q: And the half-life ([4]; intravenous, 20 mg/kg)?
A: Its half-life is 2.88 ± 1.2 h.

Q: And the Vd ([4]; intravenous, 20 mg/kg)?
A: The Vd was 4.5 ± 1.38 L/kg.

Q: What about the clearance ([4]; intravenous, range over doses (Table 1)) of the same molecule?
A: The clearance was 31.3 to 34.7 mL/min/kg.

Q: And the “disappearance of spiked α-MG” value ([5]; small intestine S9, 1 μg/mL)?
A: The value was 34.8%.

Q: And the “disappearance of spiked α-MG” value ([5]; small intestine S9, 20 μg/mL)?
A: Its value is 36.2%.

Reference: publication PMC4503439, “Dose-Independent ADME Properties and Tentative Identification of Metabolites of α-Mangostin from Garcinia mangostana in Mice by Automated Microsampling and UPLC-MS/MS Methods” (PLoS ONE, 2015)
